ChEMBL document CHEMBL1201862, “PubChem BioAssay data set” (2004)
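Test compounds were applied to cells in 96-well plates for 48 hours at 5 doses. GI50: concentration for 50% inhibition of growth.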 Calls of active or inactive are those of the source. No stated cut-off is given here; in the data, active = GI50 up to about 1.1 µM and inactive = higher.

Key:
Assay in all cases: NCI anticancer screen, dose series, 48 h
786-0 = test system: 786-0
A498 = test system: A498
A549 = test system: A549
ACHN = test system: ACHN
BT-549 = test system: BT-549
CAKI-1 = test system: CAKI-1
CCRF-CEM = test system: CCRF-CEM
COLO 205 = test system: COLO 205
DU-145 = test system: DU-145
EKVX = test system: EKVX
HCC 2998 = test system: HCC 2998
HCT-116 = test system: HCT-116
HCT-15 = test system: HCT-15
HOP-62 = test system: HOP-62
HT-29 = test system: HT-29
Hs-578T = test system: Hs-578T
IGROV-1 = test system: IGROV-1
K562 = test system: K562
KM12 = test system: KM12
M14 = test system: M14
MCF7 = test system: MCF7
MDA-MB-231 = test system: MDA-MB-231
MDA-MB-435 = test system: MDA-MB-435
MDA-N = test system: MDA-N
MOLT-4 = test system: MOLT-4
Malme-3M = test system: Malme-3M
NCI-H226 = test system: NCI-H226
NCI-H23 = test system: NCI-H23
NCI-H522 = test system: NCI-H522
NCI/ADR-RES = test system: NCI/ADR-RES
OVCAR-3 = test system: OVCAR-3
OVCAR-4 = test system: OVCAR-4
OVCAR-5 = test system: OVCAR-5
OVCAR-8 = test system: OVCAR-8
PC-3 = test system: PC-3
RPMI-8226 = test system: RPMI-8226
RXF 393 = test system: RXF 393
SF-268 = test system: SF-268
SF-295 = test system: SF-295
SK-MEL-28 = test system: SK-MEL-28
SK-MEL-2 = test system: SK-MEL-2
SK-MEL-5 = test system: SK-MEL-5
SK-OV-3 = test system: SK-OV-3
SN12C = test system: SN12C
SNB-19 = test system: SNB-19
SW-620 = test system: SW-620
T47D = test system: T47D
TK-10 = test system: TK-10
U-251 = test system: U-251
UACC-257 = test system: UACC-257
UACC-62 = test system: UACC-62
UO-31 = test system: UO-31
HL-60 = test system: HL-60
HOP-92 = test system: HOP-92
LOX IMVI = test system: LOX IMVI
NCI-H460 = test system: NCI-H460
SF-539 = test system: SF-539

Measured: GI50

CC12CCC(CC1=O)C2(C)CCC(N)=O (configuration not stated)
inactive: 786-0 > 100 µM | A498 > 100 µM | A549 > 100 µM | ACHN > 100 µM | BT-549 > 100 µM | CAKI-1 > 100 µM | CCRF-CEM > 100 µM | COLO 205 > 100 µM | DU-145 > 100 µM | EKVX > 100 µM | HCC 2998 > 100 µM | HCT-116 > 100 µM | HOP-62 > 100 µM | HT-29 > 100 µM | Hs-578T > 100 µM | IGROV-1 > 100 µM | K562 > 100 µM | KM12 > 100 µM | M14 > 100 µM | MCF7 > 100 µM | MDA-MB-231 > 100 µM | MDA-MB-435 > 100 µM | MDA-N > 100 µM | MOLT-4 > 100 µM | Malme-3M > 100 µM | NCI-H226 > 100 µM | NCI-H23 > 100 µM | NCI-H522 > 100 µM | NCI/ADR-RES > 100 µM | OVCAR-3 > 100 µM | OVCAR-4 > 100 µM | OVCAR-5 > 100 µM | OVCAR-8 > 100 µM | PC-3 > 100 µM | RPMI-8226 > 100 µM | RXF 393 > 100 µM | SF-268 > 100 µM | SF-295 > 100 µM | SK-MEL-28 > 100 µM | SK-MEL-2 > 100 µM | SK-MEL-5 > 100 µM | SK-OV-3 > 100 µM | SN12C > 100 µM | SNB-19 > 100 µM | SW-620 > 100 µM | T47D > 100 µM | TK-10 > 100 µM | U-251 > 100 µM | UACC-257 > 100 µM | UACC-62 > 100 µM | UO-31 > 100 µM
> 100 µM: HCT-15

C=C1OC(c2ccccc2NC)=NC12CCCCC2
> 100 µM: HCT-15
inactive: 786-0 > 100 µM | A498 > 100 µM | A549 > 100 µM | ACHN > 100 µM | BT-549 > 100 µM | CAKI-1 > 100 µM | CCRF-CEM > 100 µM | COLO 205 > 100 µM | DU-145 > 100 µM | EKVX > 100 µM | HCC 2998 > 100 µM | HCT-116 > 100 µM | HL-60 > 100 µM | HOP-62 > 100 µM | HOP-92 > 100 µM | HT-29 > 100 µM | Hs-578T > 100 µM | IGROV-1 > 100 µM | K562 > 100 µM | KM12 > 100 µM | LOX IMVI > 100 µM | M14 > 100 µM | MCF7 > 100 µM | MDA-MB-231 > 100 µM | MDA-MB-435 > 100 µM | MDA-N > 100 µM | MOLT-4 > 100 µM | Malme-3M > 100 µM | NCI-H226 > 100 µM | NCI-H23 > 100 µM | NCI-H460 > 100 µM | NCI-H522 > 100 µM | NCI/ADR-RES > 100 µM | OVCAR-3 > 100 µM | OVCAR-4 > 100 µM | OVCAR-5 > 100 µM | OVCAR-8 > 100 µM | PC-3 > 100 µM | RXF 393 > 100 µM | SF-268 > 100 µM | SF-295 > 100 µM | SF-539 > 100 µM | SK-MEL-28 > 100 µM | SK-MEL-5 > 100 µM | SK-OV-3 > 100 µM | SN12C > 100 µM | SNB-19 > 100 µM | SW-620 > 100 µM | T47D > 100 µM | TK-10 > 100 µM | U-251 > 100 µM | UACC-257 > 100 µM | UACC-62 > 100 µM | UO-31 > 100 µM
